The results in this text go back to ChEMBL document CHEMBL1770102, “Identification of novel potential antibiotics for tuberculosis by in silico structure-based drug screening” (Eur J Med Chem, 2011).

The source made the active and inactive calls. The calls are words filed in the database; no cut-off is given here.

Data set [1] relates to Mycobacterium vanbaalenii. In words: Antibacterial activity against Mycobacterium vanbaalenii assessed as growth inhibition at 30 uM after 72 hrs by microplate reader. Format: functional. The conditions noted are these: Mycolicibacterium vanbaalenii.
Data set [2] deals with Mycobacterium vanbaalenii. In words: Antibacterial activity against Mycobacterium vanbaalenii assessed as growth inhibition at 30 uM after 6 hrs by microplate reader. The class given is functional. The following applies: Mycolicibacterium vanbaalenii.
Data set [3] concerns Escherichia coli. In words: Toxicity against Escherichia coli JM109. Format: organism-based. The conditions noted are these: in vivo.
Data set [4] relates to MDCK. The experiment in a line: Cytotoxicity against dog MDCK cells at 30 uM after 2 days by measuring absorbance at 460 nm. Format: cell-based, Canis lupus familiaris. The following applies: 48 h.
The test system of data set [5] is Escherichia coli. In words: Toxicity against Escherichia coli BL21.
Data set [6] deals with Mycobacterium vanbaalenii. The experiment in a line: Antibacterial activity against Mycobacterium vanbaalenii assessed as inhibition of cell growth after 24 hrs. Format: functional, Mycolicibacterium vanbaalenii.
In data set [7] the test system is SH-SY5Y. In words: Cytotoxicity against human SH-SY5Y cells at 30 uM after 2 days by measuring absorbance at 460 nm. The class given is functional, cell-based.
For data set [8], the system named is Rhodococcus opacus. In words: Antibacterial activity against Rhodococcus opacus assessed as growth inhibition at 30 uM after 72 hrs by microplate reader. The class given is functional.
Data set [9] deals with Rhodococcus opacus. In words: Antibacterial activity against Rhodococcus opacus assessed as growth inhibition at 100 ug/ml after 72 hrs by microplate reader. Format: functional.
In data set [10] the test system is Mycobacterium tuberculosis. The experiment in a line: Antibacterial activity against Mycobacterium tuberculosis assessed as inhibition of cell growth after 24 hrs. Format: functional, organism-based.
The subject of data set [11] is Rhodococcus opacus. In words: Antibacterial activity against Rhodococcus opacus assessed as growth inhibition at 50 uM after 72 hrs by microplate reader. The class given is functional.

Turning to `COC(=O)c1ccc(Cl)c(NC(=O)CN(c2ccc(OCc3ccccc3)cc2)S(C)(=O)=O)c1`, the “growth inhibition (GI)” value in data set [1] and in [2] was “Active” throughout.
As to `COc1cc2c(cc1NC(=O)CSc1nnc(-c3ccccc3C)n1Cc1ccoc1)oc1ccccc12`, the Activity entry was “Non-toxic” in data set [3], “Non-toxic” in data set [4], “Non-toxic” in [5] and “Not toxic” in data set [7]. For the same compound, the IC50 (usually the point on the concentration scale where inhibition reaches its midpoint) in data set [6] turned out to be 5.3 µM. Also, the “growth inhibition (GI)” value in data set [1], in data set [2] and in data set [8] was “Active” each time.
Regarding `CC1(C)S[C@@H]2[C@H](NC(=O)[C@H](N)c3ccccc3)C(=O)N2[C@H]1C(=O)O`, the “growth inhibition (GI)” value in data set [9] was “Active”.
`NNC(=O)c1ccncc1` [ISONIAZID]: the concentration for half-maximal inhibition (IC50) in data set [10] was found to be 15 µM. Moreover, the “growth inhibition (GI)” value in [11] and in data set [1] was “Active” in each case.
For the compound `O=S(=O)(NCCc1ccccc1)c1cccc2c(S(=O)(=O)NCCc3ccccc3)cccc12`, the “growth inhibition (GI)” value in [2] is “inactive”.
For `COc1ccc(OC)c(NS(=O)(=O)c2ccc(NC(=O)CN3C(=O)c4cccc5cccc3c45)cc2)c1`, the Activity entry in data set [4] and in [7] was “Toxic” in each case. For the same compound, the “growth inhibition (GI)” value in data set [1] and in data set [2] was “Active” each time.
Regarding `CN(C(=O)CSc1nc(Nc2ccccc2)nc(N2CCOCC2)n1)C12CC3CC(CC(C3)C1)C2`, the “growth inhibition (GI)” value in data set [1] was “inactive”. In data set [2], the “growth inhibition (GI)” value was “Active”.
